Reference: PubChem BioAssay AID1013 (Columbia University Molecular Screening Center, 2008)
Calls of active or inactive are those of the source. No rule for the calls is given here.

Assay: inhibitors of TNFa-induced VCAM1 expression, confirmation, imaging, TNFa stimulus, retest and dose response (AID 1013);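 as to cell count: compound on cells 1 h before TNFa then 24 h more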
Conditions: TNFa-stimulated cells, VCAM1 expression imaging; for inhibition: at 2 µM, stronger effect = higher value

Structure (SMILES)	inhibition	cell count (cell count, at 10 µM, stronger effect = lower value) [%]
CC(NC(=O)COC(=O)Cc1ccsc1)C1CC2CCC1C2 (stereo unspecified)	3.4% (inactive)	–
O=C(COc1ccccc1-c1ccccc1)N/N=C/c1cccc2ccccc12	76.4% (inactive)	87.5
CCn1c(SCC(=O)NC(C)c2ccccc2)nc2ccccc21 (stereo unspecified)	-13.3% (inactive)	–
COc1ccc2c(c1)CCc1c(C(=O)N3CC4(C)CC3CC(C)(C)C4)noc1-2 (stereo unspecified)	-14.4% (inactive)	–
O=c1c(-c2ccc(Br)cc2)coc2c(CN3CCOCC3)c(O)ccc12	-12.4% (inactive)	–
CCOC(=O)c1oc2ccccc2c1NC(=O)Cc1cccs1	-16.8% (inactive)	–
NCCN1CCN(CCN)CC1	-8.3% (inactive)	–
CC1=C(C#N)C(Nc2cccc(C)n2)(C(F)(F)F)C(=O)N1 (stereo unspecified)	-1% (inactive)	–
COc1ccc(-c2nnc(SCC(=O)NC3CCCCC3)o2)cc1OC	-4.1% (inactive)	–
COc1ccc(NC(=O)N2CCn3c2nc2ccccc23)cc1	13% (inactive)	–
N=c1nc(N)nc2n1NC(c1ccc(F)cc1)=CS2	-1.2% (inactive)	–
COc1ccc(Cn2c(CCC(=O)O)nc3cccnc32)cc1	1.7% (inactive)	–
CCCOc1ccc(/C(O)=C2/C(=O)C(=O)N(CCOC)C2c2cccnc2)cc1 (stereo unspecified)	8.7% (inactive)	–
O=S(=O)(c1ccc2c(c1)OCCCO2)N1CCNCC1	0.5% (inactive)	–
FC(F)(F)c1cc(-c2ccc3c(c2)OCO3)nc(NCc2ccco2)n1	16.2% (inactive)	–
COc1ccc(CC(=O)Nc2ccc(-c3noc(-c4cccc(OC)c4)n3)cc2)cc1	5.5% (inactive)	–
CCOC(=O)Cc1csc(SCC(=O)/C(C#N)=C(\C)N)n1	3.4% (inactive)	–
COc1ccc(S(=O)(=O)NC(CC(=O)NCc2ccco2)C(C)C)cc1 (stereo unspecified)	4.6% (inactive)	–
CC1(C)OC(=O)C(=NNc2ccc(O)cc2)C(=O)O1	-6.2% (inactive)	–
O=C(CSc1nc2ccccc2s1)NNC(=S)Nc1ccc(Br)cc1	1.8% (inactive)	–

Structure (SMILES)	inhibition	cell count (cell count, at 10 µM, stronger effect = lower value) [%]
Cn1nc(C(=O)OCC(=O)N2CCc3ccccc32)c2ccccc2c1=O	4.8% (inactive)	–
CC(Sc1nc(N)cc(=O)[nH]1)C(=O)NC1CCCCC1 (stereo unspecified)	-7.6% (inactive)	–
CC(CCc1ccccc1)NC(=O)c1ccc(Br)o1 (stereo unspecified)	-4.5% (inactive)	–
CN1CCc2nc3sc(C#N)c(N)c3c(-c3cccs3)c2C1	-13.9% (inactive)	–
CCOC(=O)/C(=C\c1cccnc1)C(=O)c1cc(C(C)=O)c(Nc2ccccc2)s1	19.8% (inactive)	–
CCC(=O)Nc1cccc(C(=O)/C=C/c2cc(Br)ccc2OC)c1	10% (inactive)	–
CC1Cc2cc(-c3csc(NC(=O)Cc4cccs4)n3)ccc2N1S(C)(=O)=O (stereo unspecified)	0.8% (inactive)	–
C=CCCCOc1ccc(C(=O)O)cc1	8.3% (inactive)	–
Cc1noc(C)c1S(=O)(=O)N1CCC2(CC1)OCCO2	7.1% (inactive)	–
CCCC(C(=O)NC1CCCC1)N(CCCN1CCOCC1)C(=O)c1snc(C(N)=O)c1N (stereo unspecified)	4.4% (inactive)	–
COc1ccc(-c2cc(=O)[nH]c(NCc3ccccc3)n2)cc1	15.6% (inactive)	–
COc1ccc(CN2CCCCC2C(=O)Nc2ccc(OC)c(OCC(C)C)c2)cc1OC (stereo unspecified)	-5.8% (inactive)	–
COC(=O)c1c(NC(=O)c2ccc(S(=O)(=O)N3CCOCC3)cc2)sc2c1CCN(C)C2	-5.4% (inactive)	–
NC(=O)c1c(NC(=O)Cc2cccs2)sc2c1CCC2	-16.5% (inactive)	–
Cc1csc(NC(=O)CSc2nnc(-c3ccc(S(=O)(=O)N4CCCC4)cc3)o2)n1	12.9% (inactive)	–
Cc1cc(C(=O)NN=C2C3CC4CC(C3)CC2C4)c2ccccc2n1	-1.3% (inactive)	–
CCNc1nc(NCC)n2c(SCc3ccc(F)cc3)nnc2n1	-6.3% (inactive)	–
O=C1CCSc2cccc3cccc(c23)N1	2.8% (inactive)	–
O=C1N2CCSC2=NC1(Nc1ccccn1)C(F)(F)F (stereo unspecified)	5.4% (inactive)	–
COc1cccc(OC)c1NC(=O)CN1CCC(NC(=O)c2cccc(F)c2)CC1	6.5% (inactive)	–
